# Source: patent US9341616B2, “Sweet taste receptor chimeric proteins and use thereof” (AJINOMOTO CO., INC., priority 2014, dated 2016)
# Residues, ends and D or L forms follow the SMILES beside them.
# Target: h-mT1R2-481/T1R3mosaicB (UniProt Q8TE23+Q925D8, A537S/A558R/A564V/A568V/A570T/A588V/A645S/A649T/A658V/A698V/A702T/A782V/A793V/A807V/A88D/C582S/C678S/E530V/E534N/E542M/E548N/E725V/F525Y/F541I/F612A/F622V/F665L/F695L/F71L/G696N/G701T/G86K/H484Y/H528R/H728R/I152V/I481V/I486P/I490V/I510L/I518V/I595M/I617V/I643V/I645L/I692L/I695G/I706V/I740A/I803L/K504M/K555R/K565R/K626T/K714N/K818R/K827G/L151M/L521P/L560F/L571I/L578I/L610P/L631F/L636F/L639V/L684P/L688V/L68N/L702I/L72W/L734M/L735F/L800F/L823M/L825Q/M492I/M616G/M644L/M682V/M690V/M744T/M748V/M74L/N540G/N541S/N547G/N675D/N721H/P545F/P561R/P564S/P638T/P67S/P824S/Q123R/Q536L/Q546K/Q550E/Q555R/Q611L/Q676H/Q757R/Q795R/Q831P/R498S/R632Q/R667S/S112P/S124D/S501P/S547N/S550A/S576L/S595F/S610P/S628F/S635P/S637R/S663R/S670G/S679G/S681F/S703N/S717H/S727G/S784D/S804G/T109A/T529S/T542A/T549I/T609V/T629S/T642S/T663I/T694M/T705I/T706G/T716I/T813A/V120A/V508I/V512P/V557A/V573A/V584A/V585L/V613L/V617M/V673M/V687A/V691A/V694A/V718L/V718M/V723A/V729T/V738A/V741L/V774I/V791M/V805L/V812A/V821L/W599R/W676R/W824R/Y533F/Y615F/Y671F/Y680C/Y769S/Y783H/Y794L)
# Conditions: Table 6; genes h-mT481/T1R3mB (h-mT1R2-481, T1R3mB); HEK293E cells
# Protocol: The HEK293E cells maintained by using the DMEM/Ham's F-12 medium (Nakarai Tesque) containing 10% fetal bovine serum ([…]) and 1% Pen Strep (GIBCO) were washed with D-PBS(−) (Nakarai Tesque), and collected from the flask by using 0.25% Trypsin EDTA (GIBCO). The cells were centrifuged (1,200 rpm, 3 minutes), and after the supernatant was removed, suspended in 5% FBS DMEM/Ham's F-12 at a density of 0.75×10^7 cell/ml. This suspension (10 ml) was put into a […] (IWAKI), and culture was performed overnight (37° C., 5% CO2). On the next day, the medium was exchanged with Opti-MEM (30 ml, Invitrogen, Life Technologies), a sweet taste receptor gene mixture (Gα15-trans48LD gene, various kinds of T1R2 chimeric genes, and various kinds of T1R3 chimeric genes, 63.8 μg in total) prepared by using Opti-MEM and Lipofectamin 2000 (Invitrogen, Life Technologies) was slowly added to the cell suspension, and incubation was performed (37° C., 5% CO2) for 6 hours to attain gene transfer.
# After the gene transfer, the cells were washed with D-PBS(−), then removed from the flask by using 0.25% Trypsin EDTA (GIBCO), and collected. After the cell number was counted, the cells were suspended in the 5% FBS DMEM medium (2.78 mM glucose, GIBCO) at a density of 0.5×10^6 cell/ml. This cell suspension was put into wells of D-Lysine coat 96-well plate (BD bioscience) in such a volume that the cell count is 7.0×10^4 cells/well, and the cells were cultured overnight.
# After the culture, all the medium of the 96 wells were discarded. 200 μl of the staining solution for measurement of intracellular calcium ion′ Calcium Assay Kit Express (Molecular Device), diluted 80 times with an assay buffer (20 mM HEPES, 146 mM NaCl, 1 mM MgSO4, 1.39 mM glucose, 1 mM CaC12, 2.5 mM Probenecid, 0.05% bovine serum albumin) was added to each well, and the plate was left standing at 37° C. for 30 minutes and at room temperature for 45 minutes to perform staining. After the staining, 50 μl of a solution of stimulant (sweet taste substance) prepared with the assay buffer was added to each well, and the fluorescence value was measured for 120 seconds after the stimulation by using FDSSμEELL (Hamamatsu Photonics). By measuring the fluorescence value (Ex. 480 nm, Em. 540 nm) before and after the stimulation, the change of the intracellular free calcium ion concentration caused by addition of the stimulant via a sweet taste receptor was quantitatively investigated. The measurement and analysis of the fluorescence value was performed by using the software attached to FDSSμEELL (FDSS7000EX), and ΔF/F value was calculated in accordance with the following equation, and used for the evaluation. ΔF/F=(Maximum fluorescence value after stimulation−Minimum fluorescence value after stimulation)/(Fluorescence value before stimulation)
# Furthermore, by using the ΔF/F values obtained when each sweet taste substance was added, the S/N ratio was calculated. Specifically, the S/N value was calculated by using the minimum value of ΔF/F obtained when each substance was added at various concentrations as noise (N) value, and the similarly obtained maximum value of ΔF/F as the signal (S) value, and used as an index for sensitivity of the measurement of the activity of each receptor. That is, a higher S/N value means a higher sensitivity for detection of an interaction of a sweet taste receptor and a test substance, which makes it easier to detect stimulation with a sweet taste substance or sweet taste-regulating substance of a lower concentration.
# The sweet taste substances used as the stimulating substance are acesulfame potassium (Tokyo Kasei Kogyo), sodium saccharin (WAKO), sucralose (SIGMA), sucrose (WAKO), and neotame (SIGMA), as well as aspartame, advantame, and SC-45647 ([3-[(S)-1-phenylethyl]-2-(4-cyanophenyl)guanidino]acetic acid, which were all synthesized in-house.
# Sequence of h-mT1R2-481/T1R3mosaicB (Q8TE23 with tags, fused parts or gaps with the stated changes limits assumed): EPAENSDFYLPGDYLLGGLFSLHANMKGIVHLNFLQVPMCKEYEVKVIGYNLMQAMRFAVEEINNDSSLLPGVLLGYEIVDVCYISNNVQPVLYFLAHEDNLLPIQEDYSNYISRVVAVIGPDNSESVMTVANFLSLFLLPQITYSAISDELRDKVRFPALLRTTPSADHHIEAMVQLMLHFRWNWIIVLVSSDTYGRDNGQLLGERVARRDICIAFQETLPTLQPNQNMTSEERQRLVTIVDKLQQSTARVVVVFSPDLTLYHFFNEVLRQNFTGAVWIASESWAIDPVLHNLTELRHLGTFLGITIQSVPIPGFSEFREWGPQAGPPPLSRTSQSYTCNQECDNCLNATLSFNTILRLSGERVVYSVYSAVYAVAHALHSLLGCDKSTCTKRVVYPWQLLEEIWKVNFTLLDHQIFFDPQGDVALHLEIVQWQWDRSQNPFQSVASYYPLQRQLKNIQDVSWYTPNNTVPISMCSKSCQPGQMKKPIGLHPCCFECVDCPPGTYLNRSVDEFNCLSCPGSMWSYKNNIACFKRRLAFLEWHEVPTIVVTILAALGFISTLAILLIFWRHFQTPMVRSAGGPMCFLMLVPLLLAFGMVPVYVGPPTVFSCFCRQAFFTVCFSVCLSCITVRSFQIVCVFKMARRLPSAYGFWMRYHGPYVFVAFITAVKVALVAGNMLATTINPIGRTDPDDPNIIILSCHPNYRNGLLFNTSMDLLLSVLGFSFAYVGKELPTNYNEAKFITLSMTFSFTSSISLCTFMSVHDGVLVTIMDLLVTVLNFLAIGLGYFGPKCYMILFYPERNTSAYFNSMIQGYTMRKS
# Sequence of h-mT1R2-481/T1R3mosaicB (Q925D8 with tags, fused parts or gaps with the stated changes limits assumed): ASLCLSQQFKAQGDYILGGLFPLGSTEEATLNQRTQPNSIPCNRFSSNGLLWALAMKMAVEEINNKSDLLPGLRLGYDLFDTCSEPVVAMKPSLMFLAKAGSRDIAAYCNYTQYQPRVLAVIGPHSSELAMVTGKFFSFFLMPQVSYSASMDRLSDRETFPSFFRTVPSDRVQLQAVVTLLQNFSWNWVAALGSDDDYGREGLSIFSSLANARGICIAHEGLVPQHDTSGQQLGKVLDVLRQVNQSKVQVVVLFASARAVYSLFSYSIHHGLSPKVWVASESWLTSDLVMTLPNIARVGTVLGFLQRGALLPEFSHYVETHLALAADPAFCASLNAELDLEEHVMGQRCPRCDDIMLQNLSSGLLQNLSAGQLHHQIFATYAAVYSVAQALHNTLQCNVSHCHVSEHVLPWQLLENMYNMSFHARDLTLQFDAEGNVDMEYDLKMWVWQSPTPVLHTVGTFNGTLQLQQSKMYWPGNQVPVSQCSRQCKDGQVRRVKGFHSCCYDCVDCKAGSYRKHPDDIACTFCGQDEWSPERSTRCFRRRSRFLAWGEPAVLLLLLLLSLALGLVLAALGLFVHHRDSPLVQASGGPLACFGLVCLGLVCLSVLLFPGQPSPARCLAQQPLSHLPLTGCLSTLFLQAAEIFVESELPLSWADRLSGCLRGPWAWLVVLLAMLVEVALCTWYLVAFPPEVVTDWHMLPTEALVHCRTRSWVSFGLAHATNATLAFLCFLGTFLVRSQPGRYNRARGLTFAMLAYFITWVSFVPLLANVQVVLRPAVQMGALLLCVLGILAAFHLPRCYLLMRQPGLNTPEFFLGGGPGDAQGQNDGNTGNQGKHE
row,SMILES,S/N
1,"COC(=O)[C@H](Cc1ccccc1)NC(=O)[C@@H](N)CC(=O)O [Aspartame, aspartame] (HELM PEPTIDE1{D.F.[CO[*:1]]}$$$$V2.0)",7.8
2,"OC[C@H]1O[C@H](O[C@]2(CCl)O[C@H](CCl)[C@@H](O)[C@@H]2O)[C@H](O)[C@@H](O)[C@H]1Cl [Sucralose, sucralose]",6.6
3,"O=C1NS(=O)(=O)c2ccccc21.[Na] [Saccharin Na, sodium saccharin]",6.1
4,"COC(=O)[C@H](Cc1ccccc1)NC(=O)[C@H](CC(=O)O)NCCCc1ccc(OC)c(O)c1 [Advantame, advantame]",10.2
5,"C[C@H](NC(=Nc1ccc(C#N)cc1)NCC(=O)O)c1ccccc1 [SC-45647, [3-[(S)-1-phenylethyl]-2-(4-cyanophenyl)guanidino]acetic acid]",7.7
6,"OC[C@H]1O[C@@](CO)(O[C@H]2O[C@H](CO)[C@@H](O)[C@H](O)[C@H]2O)[C@@H](O)[C@@H]1O [Sucrose, sucrose]",4.0
7,"CC1=CC(=O)NS(=O)(=O)O1 [Acesulfame K, acesulfame potassium]",5.6
8,"COC(=O)[C@H](Cc1ccccc1)NC(=O)[C@H](CC(=O)O)NCCC(C)(C)C [Neotame, neotame]",7.7
9,"COc1ccc(CCC(=O)c2c(O)cc(O[C@@H]3O[C@H](CO)[C@@H](O)[C@H](O)[C@H]3O[C@@H]3O[C@@H](C)[C@H](O)[C@@H](O)[C@H]3O)cc2O)cc1O [NHDC, neohesperidin dihydrochalcone]",5.8
